Laboratory results reported in patent publication US8569264B2, “Antibacterial 4,5-substituted aminoglycoside analogs having multiple substituents” (ISIS Pharmaceuticals, Inc., priority 2005, dated 2013).
In brackets after ≈: the same amount, converted by molar mass. Read-outs that look alike come from different tables or passages of the source. Marks after values point to notes of the source that are not given here.

Tests used:
[1] = tested on: Staphylococcus aureus (Smith Strain ATCC 13709); test: Staphylococcus aureus mouse protection assay; assay type: in vivo, mice; conditions: Staph Conc. 10^6, 10% Mucin, the 13th table
Method: Two of the novel aminoglycoside compounds of the invention were examined for their anitbacterial activity against staphylococcus aureus. Mice were fed with autoclaved commercial food pellets and sterile water ad libitum. Animals were inoculated intraperitoneally with 0.5 mL/mouse of the indicated concentration of S. aureus (ATCC 13709) containing 10% mucin. There were 10 mice in each treatment group and compounds were administered subcutaneously one and 3 hour after infection. Compounds 15a (R4═R5═CH3) and 15j (R4═H, R5═(CH2)2C6H5)) were used at 75 mg/kg, 37.5 mg/kg, 18.8 mg/kg, 9.4 mg/kg, 4.7 mg/kg, 2.3 mg/kg, 1.17 mg/kg and 0.5 mg/kg. Amakacin, paromomycin and neomycin were used as the positive controls at concentrations of 2 mg/kg, 1 mg/kg and 0.5 mg/kg.
Test compound was administered as an aqueous buffer solution (phosphate buffered saline (PBS), pH=7.4).

[2] = target: 18S ribosomal subunit RNA target; test: Mass spectrometry based binding assay (FTICR), 18S
Method: (§1) In a typical experiment, 10 μL of an aqueous solution containing 100 mM ammonium acetate buffer, 2.5 or 5 μM of each RNA, and 33% isopropyl alcohol (to aid ion desolvation) was prepared with different concentrations of each ligand or ligand mixture Samples were introduced into the electrospray ionization source (negative ionization mode) at 1 μL/min and ions were stored for 1 sec in an RF-only hexapole following desolvation. The abundances were integrated from the respective ions for free RNA and the ligand-RNA complex. The primary (1:1 RNA:ligand) and secondary (1:2 complex, if observed). […] The peak ratios were measured at each concentration, then a plot of complex/free RNA versus concentration of ligand added was fitted to a second (or higher) order binding polynomial to determine the KD.

[3] = target: 16S ribosomal subunit RNA target; test: Mass spectrometry based binding assay (FTICR), 16S
Method: as §1, with “[…],” for “2.5 or 5 μM of each RNA,”

[4] = tested on: E. coli S30 bacterial extract (pBestLuc firefly luciferase reporter); test: Coupled bacterial transcription/translation assay; assay type: biochemical; conditions: read-out: Trans/Trans IC50
Method: The DNA template, pBestLuc™ (Promega), is a plasmid containing a reporter gene for firefly luciferase fused to a strong tac promoter and ribosome binding site. Messenger RNA from 1 μg pBestLuc is transcribed and translated in E. coli S30 bacterial extract in the presence or absence of test compound. Compounds are tested in a black 96 well microtiter plate with an assay volume of 35 μL. […] The transcription/translation reaction is incubated for 35 minutes at 37° C. followed by detection of functional luciferase with the addition of 30 μL LucLite™ (Packard). Light output is quantitated on a Packard TopCount.

[5] = tested on: E. Coli; test: MIC, E. Coli; assay type: cell-based
Method: (§2) The MIC assays are carried out in 150 μL volume in duplicate in 96-well clear flat-bottom plates. The bacterial suspension from an overnight culture growth in appropriate medium is added to a solution of test compound in 4% DMSO in water. Final bacterial inoculum is approximately 10^5-10^6 CFU/well. […] Both ampicillin and tetracycline are used as antibiotic-positive controls in each screening assay for S. pyogenes, E. coli imp-, E. coli, S. aureus, E. faecalis, K. pneumoniae and P. vulgaris. Ciprofloxacin is used as an antibiotic positive control in each screening assay for P. aeruginosa.

[6] = tested on: S. Aureus; test: MIC, S. Aureus; assay type: cell-based
Method: as §2

[7] = FTICR mass spectrometry, Example 105
[8] = FTICR mass spectrometry, run at 100 nM RNA, Example 105
[9] = marked with an asterisk: run at 500 nM RNA, Example 105

NCC[C@H](O)C(=O)N[C@@H]1C[C@H](N)[C@@H](O[C@H]2O[C@H](CN)[C@@H](O)[C@H](O)[C@H]2O)[C@H](O)[C@H]1O[C@H]1O[C@H](CO)[C@@H](O)[C@H](N)[C@H]1O [Amikacin, reference compound]
# Dead mice/Total mice in group ([1]; 0.5 mg/kg subcutaneously): 8/10
# Dead mice/Total mice in group ([1]; 1 mg/kg subcutaneously): 10/10
# Dead mice/Total mice in group ([1]; 2 mg/kg subcutaneously): 8/10

NCC1OC(OC2C(CO)OC(OC3C(O)C(N)CC(N)C3OC3OC(CO)C(O)C(O)C3N)C2OCCNc2cccnc2)C(N)C(O)C1O (stereo not shown) [Compound 9a]
Kd [2, 7]: 3.5 µM
Kd [3, 8]: 0.6 µM
IC50 ([4]; Example 105): 0.1 µM
MIC E. Coli. ([5]; Example 105): 3-6^b uM
MIC S. Aureus ([6]; Example 105): 0.6-1^ uM

NCC1OC(OC2C(CO)OC(OC3C(O)C(N)CC(N)C3OC3OC(CO)C(O)C(O)C3N)C2OCCNCCc2ccc(-c3ccccc3)cc2)C(N)C(O)C1O (stereo not shown) [Compound 9aa]
Kd ([2]; Example 106): 3.5 µM
Kd ([3]; Example 106): 0.9 µM
IC50 ([4]; Example 106): 1.5 µM
MIC E. Coli. ([5]; Example 106): 20 to 40 µM
MIC S. Aureus ([6]; Example 106): 5 to 10 µM

NCC1OC(OC2C(CO)OC(OC3C(O)C(N)CC(N)C3OC3OC(CO)C(O)C(O)C3N)C2OCCNCCc2ccc3ccccc3c2)C(N)C(O)C1O (stereo not shown) [Compound 9ak]
Kd [2, 7]: 3.5 µM
Kd [3, 8]: 0.7 µM
IC50 ([4]; Example 105): 0.3 µM
MIC E. Coli. ([5]; Example 105): 10 to 20 µM
MIC S. Aureus ([6]; Example 105): 1-3. uM

NCCCNCCOC1C(OC2C(O)C(N)CC(N)C2OC2OC(CO)C(O)C(O)C2N)OC(CO)C1OC1OC(CN)C(O)C(O)C1N (stereo not shown) [Compound 9c]
Kd [3, 9]: 0.4 µM
IC50 ([4]; Example 105): 0.3 µM
MIC E. Coli. ([5]; Example 105): 25 to 50 µM
MIC S. Aureus ([6]; Example 105): 3 to 6 µM

NCCNCCOC1C(OC2C(O)C(N)CC(N)C2OC2OC(CO)C(O)C(O)C2N)OC(CO)C1OC1OC(CN)C(O)C(O)C1N (stereo not shown) [Compound 9d]
Kd [3, 8]: 0.7 µM
IC50 ([4]; Example 105): 0.3 µM
MIC E. Coli. ([5]; Example 105): 6 to 12 µM
MIC S. Aureus ([6]; Example 105): 2 to 3 µM

NCC1OC(OC2C(CO)OC(OC3C(O)C(N)CC(N)C3OC3OC(CO)C(O)C(O)C3N)C2OCCNCc2nc3ccccc3[nH]2)C(N)C(O)C1O (stereo not shown) [Compound 9e]
Kd [2, 7]: 11 µM
Kd [3, 8]: 3.9 µM
IC50 ([4]; Example 105): 0.2 µM
MIC E. Coli. ([5]; Example 105): >100 µM
MIC S. Aureus ([6]; Example 105): >100 µM

NCCOC1C(OC2C(O)C(N)CC(N)C2OC2OC(CO)C(O)C(O)C2N)OC(CO)C1OC1OC(CN)C(O)C(O)C1N (stereo not shown) [Compound 9f]
Kd [3, 8]: 0.3 µM
IC50 ([4]; Example 105): 0.4 µM
MIC E. Coli. ([5]; Example 105): 12 to 25 µM
MIC S. Aureus ([6]; Example 105): 2 to 3 µM

CN(C)CCOC1C(OC2C(O)C(N)CC(N)C2OC2OC(CO)C(O)C(O)C2N)OC(CO)C1OC1OC(CN)C(O)C(O)C1N (stereo not shown) [Compound 9g]
Kd [3, 9]: 0.9 µM
IC50 ([4]; Example 105): 0.2 µM
MIC E. Coli. ([5]; Example 105): 12 to 52 µM
MIC S. Aureus ([6]; Example 105): 6 to 12 µM

NCCN(CCN)CCOC1C(OC2C(O)C(N)CC(N)C2OC2OC(CO)C(O)C(O)C2N)OC(CO)C1OC1OC(CN)C(O)C(O)C1N (stereo not shown) [Compound 9h]
Kd [3, 8]: 9.2 µM
IC50 ([4]; Example 105): 1 µM
MIC E. Coli. ([5]; Example 105): >50 µM
MIC S. Aureus ([6]; Example 105): 25 to 50 µM

NCC1OC(OC2C(CO)OC(OC3C(O)C(N)CC(N)C3OC3OC(CO)C(O)C(O)C3N)C2OCCNC2CCCNC2)C(N)C(O)C1O (stereo not shown) [Compound 9j]
Kd [2, 7]: 5 µM
Kd [3, 8]: 0.1 µM
IC50 ([4]; Example 105): 0.1 µM
MIC E. Coli. ([5]; Example 105): 1.5-3^ uM
MIC S. Aureus ([6]; Example 105): 3 to 6 µM

NCC1OC(OC2C(CO)OC(OC3C(O)C(N)CC(N)C3OC3OC(CO)C(O)C(O)C3N)C2OCCNCC2CCCNC2)C(N)C(O)C1O (stereo not shown) [Compound 9k]
Kd [2, 7]: 2.6 µM
Kd [3, 8]: 0.3 µM
IC50 ([4]; Example 105): 0.04 µM
MIC E. Coli. ([5]; Example 105): 1.5-3^ uM
MIC S. Aureus ([6]; Example 105): 3 to 6 µM

NCC1OC(OC2C(CO)OC(OC3C(O)C(N)CC(N)C3OC3OC(CO)C(O)C(O)C3N)C2OCCNc2ccccc2)C(N)C(O)C1O (stereo not shown) [Compound 9l]
IC50 ([4]; Example 105): 0.1 µM
MIC E. Coli. ([5]; Example 105): 50 to 100 µM
MIC S. Aureus ([6]; Example 105): 6 to 12 µM

NCC1OC(OC2C(CO)OC(OC3C(O)C(N)CC(N)C3OC3OC(CO)C(O)C(O)C3N)C2OCCNc2cnc3ccccc3c2)C(N)C(O)C1O (stereo not shown) [Compound 9m]
Kd [2, 7]: 0.9 µM
Kd [3, 8]: 0.1 µM
IC50 ([4]; Example 105): 0.1 µM
MIC E. Coli. ([5]; Example 105): 12 to 25 µM
MIC S. Aureus ([6]; Example 105): 1 to 2 µM

NCC1OC(OC2C(CO)OC(OC3C(O)C(N)CC(N)C3OC3OC(CO)C(O)C(O)C3N)C2OCCNC2CCCCC2)C(N)C(O)C1O (stereo not shown) [Compound 9n]
Kd [2, 7]: 0.4 µM
Kd [3, 8]: 0.1 µM
IC50 ([4]; Example 105): 0.2 µM
MIC E. Coli. ([5]; Example 105): 3 to 6 µM
MIC S. Aureus ([6]; Example 105): 3 to 5 µM

NCC1OC(OC2C(CO)OC(OC3C(O)C(N)CC(N)C3OC3OC(CO)C(O)C(O)C3N)C2OCCNCCc2cccnc2)C(N)C(O)C1O (stereo not shown) [Compound 9o]
Kd [2, 7]: 1 µM
Kd [3, 8]: 0.2 µM
IC50 ([4]; Example 105): 0.2 µM
MIC E. Coli. ([5]; Example 105): 6 to 12 µM
MIC S. Aureus ([6]; Example 105): 0.6-1^ uM

COc1cc(CCNCCOC2C(OC3C(O)C(N)CC(N)C3OC3OC(CO)C(O)C(O)C3N)OC(CO)C2OC2OC(CN)C(O)C(O)C2N)cc(OC)c1 (stereo not shown) [Compound 9y]
IC50 ([4]; Example 106): 0.2 µM
MIC E. Coli. ([5]; Example 106): 10 to 20 µM
MIC S. Aureus ([6]; Example 106): 5 to 10 µM

NCCCCNCC1OC(OC2C(N)CC(N)C(O)C2OC2OC(CO)C(OC3OC(CN)C(O)C(O)C3N)C2O)C(N)C(O)C1O (stereo not shown) [Compound 15f]
Kd ([2]; Example 108): 6 µM
Kd ([3]; Example 108): 6.3 µM
MIC E. Coli. ([5]; Example 108): 2.5-5^ uM
MIC S. Aureus ([6]; Example 108): 10 to 20 µM

NCC1OC(OC2C(CF)OC(OC3C(O)C(N)CC(N)C3OC3OC(CO)C(O)C(O)C3N)C2O)C(N)C(O)C1O (stereo not shown) [Compound 61, 5″-deoxy-5″-fluoro paromomycin]
Kd [3, 8]: 1.1 µM
IC50 ([4]; Example 105): 0.3 µM
MIC ([5]; Escherichia coli, Example 105): > 50 µM
MIC ([6]; Staphylococcus aureus, Example 105): 12 to 25 µM (≈ 7.41 to 15.4 µg/mL)

NC[C@@H]1O[C@H](O[C@H]2[C@@H](O)[C@H](O[C@@H]3[C@@H](O)[C@H](N)C[C@H](N)[C@H]3O[C@H]3O[C@H](CN)[C@@H](O)[C@H](O)[C@H]3N)O[C@@H]2CO)[C@H](N)[C@@H](O)[C@@H]1O [Neomycin B, reference compound]
Kd ([2]; Example 106): 0.3 µM
Kd ([3]; Example 106): 0.04 µM
IC50 ([4]; Example 106): 0.2 µM

neomycin [reference compound]
# Dead mice/Total mice in group ([1]; 0.5 mg/kg subcutaneously): 7/10
# Dead mice/Total mice in group ([1]; 1 mg/kg subcutaneously): 10/10
# Dead mice/Total mice in group ([1]; 2 mg/kg subcutaneously): 4/10
